Results from US6552014B2, “Methods of inhibiting platelet activation with selective serotonin reuptake inhibitors” (HeartDrug Research, L.L.C., priority 1999, dated 2003).

Experiments:
Vitronectin receptor = test: Flow cytometry of platelet antigen expression, platelet rich plasma; format: cell-based, human; conditions: for Vitronectin (mean) log fluorescence intensity / Vitronectin (peak) log fluorescence intensity: PRP
Text: For ex vivo assessment of the SSRIs effect on a PAM, a level of a PAM can be assessed by flow cytometry by first obtaining a sample that comprises platelets and then contacting the sample with a platelet activation agonist, such as phorbol myristate acetate (PMA), ADP (adenosine diphosphate), thrombin, collagen, and/or TRAP (thrombin receptor activating peptide), under conditions suitable for activation of platelets in the sample. The sample is in contact with the agonist preferably for a period of time effective to maximally activate the platelets. […] Then the formation of the complex in the sample is determined (detected or measured). […] The blood-ACD mixture was centrifuged at 1000 r.p.m. for 10 minutes at room temperature. […] The PRP was then centrifuged at 3000 r.p.m. for 10 minutes. […] All cells were then divided into ten plastic capped tubes. Nine portions of washed platelets were incubated with 5 μfluorescein isothiocyanate (FITC)-conjugated antibodies in the dark at +4 °C for 30 minutes, and one part remained unstained and served as a negative control. […] The instrument was calibrated daily with fluorescence beads (CaliBRITE; Becton Dickinson) and measured FITC-conjugated fluorescence intensity. All parameters were obtained using four decade logarithmic amplification. The data was collected and stored in list mode, and then analyzed using CELLQuest® (version 1.2.2) software. Procedures are described in detail in (Gurbel, P. […] Serebruany, V. […] The levels of various PAMs were assess from samples of human volunteers.

platelets = test: PFA-100 closure time, collagen/ADP cartridge; format: cell-based, human; conditions: whole blood from a healthy volunteer, increasing concentrations
Text: A Platelet-Function Analyzer referred to as PFA-100® (Dade Behring, Deerfield Ill.) was used. The PFA-100® is a high shear-inducing analyzer that simulates primary hemostasis after injury to a small vessel under flow conditions. The PFA-100® system measures the time required for a patient's blood sample to form a“platelet plug” in the first phase of blood clot formation. That time interval, which normally ranges from one to three minutes, is called “closure time.” The device provides a constant negative pressure that aspirates whole blood which comes into contact with the collagen coated membrane and then passes through the aperture. The time required to obtain occlusion of the aperture is digitally recorded.
The PFA-100® system permits detection of platelet dysfunction during primary hemostasis, the first phase of hemostasis or coagulation. The system consists of a microprocessor-controlled instrument and disposable test cartridges that measure how well a patient's platelets adhere and aggregate to form a platelet plug.
An in vitro system for the detection of platelet dysfunction, PFA-100™, has been developed. It provides a quantitative measure of platelet function in anticoagulated whole blood. The system comprises a microprocessor-controlled instrument and a disposable test cartridge containing a biologically active membrane. […]

GP IIIa = test: Flow cytometry of platelet antigen expression, platelet rich plasma; format: cell-based, human; conditions: PRP, desmethylsertraline 64.2 ng/ml
CPIa-IIa = test: as above; format: cell-based, human; conditions: PRP; healthy volunteers; desmethylsertraline 64.2 ng/ml
PECAM-1 [1] = test: as above; format: cell-based, human; conditions: PRP, desmethylsertraline 64.2 ng/ml
PECAM-1 [2] = test: Ex vivo soluble PECAM-1 plasma levels in patients; parameters: species or system human; conditions: patients with depression following myocardial infarction; after 16 weeks of the sertraline/placebo therapy
Method: Soluble P-selectin (Centocor, Inc., Malvern, Pa. USA); and PECAM-1 (Bender MedSystems, Vienna, Austria) are measured Plasma samples will be extracted with ethanol and then stored at −80° C. before final determination. Enzyme-linked immunosorbent assays will be used according standard techniques and as described herein.

[3] = single doses in volunteers; cited from earlier work
[4] = healthy volunteers, desmethylsertraline 31.1 ng/ml
[5] = healthy volunteers, desmethylsertraline 64.2 ng/ml
[6] = healthy volunteers, desmethylsertraline 143 ng/ml
[7] = post-angioplasty patient on aspirin, desmethylsertraline 31.1 ng/ml
[8] = post-angioplasty patient on aspirin, desmethylsertraline 64.2 ng/ml
[9] = post-angioplasty patient on aspirin, desmethylsertraline 143 ng/ml
[10] = post-angioplasty patient on aspirin
[11] = post-angioplasty patient on aspirin, sertraline 44.7 ng/ml
[12] = post-angioplasty patient on aspirin, sertraline 85.3 ng/ml

N[C@H]1CC[C@@H](c2ccc(Cl)c(Cl)c2)c2ccccc21 [Desmethyl sertraline, N-desmethylsertraline]
Vitronectin (mean) log fluorescence intensity (Vitronectin receptor; [4]): 677
Vitronectin (peak) log fluorescence intensity (Vitronectin receptor; [4]): 620
Vitronectin (mean) log fluorescence intensity (Vitronectin receptor; [5]): 623
Vitronectin (peak) log fluorescence intensity (Vitronectin receptor; [5]): 508
Vitronectin (mean) log fluorescence intensity (Vitronectin receptor; [6]): 732
Vitronectin (peak) log fluorescence intensity (Vitronectin receptor; [6]): 670
Vitronectin (mean) log fluorescence intensity (Vitronectin receptor; [7]): 504
Vitronectin (peak) log fluorescence intensity (Vitronectin receptor; [7]): 560
Vitronectin (mean) log fluorescence intensity (Vitronectin receptor; [8]): 380
Vitronectin (peak) log fluorescence intensity (Vitronectin receptor; [8]): 425
Vitronectin (mean) log fluorescence intensity (Vitronectin receptor; [9]): 482
Vitronectin (peak) log fluorescence intensity (Vitronectin receptor; [9]): 544
closure time (time for a platelet plug to form) (FIG. 11), in words (platelets): decrease in the time
GP IIIa (peak) log fluorescence intensity (GP IIIa; healthy volunteers): 1144
GP IIIa (mean) log fluorescence intensity (GP IIIa; [10]): 1247
CPIa-IIa (mean) log fluorescence intensity (CPIa-IIa): 42
CPIa-IIa (peak) log fluorescence intensity (CPIa-IIa): 40
PECAM-1 (peak) log fluorescence intensity (PECAM-1 [1]; healthy volunteers): 91
PECAM-1 (mean) log fluorescence intensity (PECAM-1 [1]; [10]): 105
PECAM-1 (peak) log fluorescence intensity (PECAM-1 [1]; [10]): 84

CN[C@H]1CC[C@@H](c2ccc(Cl)c(Cl)c2)c2ccccc21 [sertraline]
Vitronectin (mean) log fluorescence intensity (Vitronectin receptor; healthy volunteers, sertraline 18.1 ng/ml): 810
Vitronectin (mean) log fluorescence intensity (Vitronectin receptor; healthy volunteers, sertraline 44.7 ng/ml): 510
Vitronectin (mean) log fluorescence intensity (Vitronectin receptor; healthy volunteers, sertraline 85.3 ng/ml): 667
Vitronectin (mean) log fluorescence intensity (Vitronectin receptor; post-angioplasty patient on aspirin, sertraline 18.1 ng/ml): 405
Vitronectin (mean) log fluorescence intensity (Vitronectin receptor; [11]): 344
Vitronectin (peak) log fluorescence intensity (Vitronectin receptor; [11]): 393
Vitronectin (mean) log fluorescence intensity (Vitronectin receptor; [12]): 529
Vitronectin (peak) log fluorescence intensity (Vitronectin receptor; [12]): 585
surface expression of vitronectin receptor, in words (Vitronectin receptor; plasma concentration 85.3 ng/ml, equivalent to 200 mg/daily): diminished surface expression
closure time (time for a platelet plug to form) (FIG. 11), in words (platelets): decrease in the time
ex vivo PECAM-1 plasma levels, in words (PECAM-1 [2]): Mild, but consistent reduction
dose at which sedative potential is evident [3]: ≥ 200 mg/daily
